From patent US20080171710A1, “The Redox/Fyn/c-Cbl Pathway” (priority 2007, published 2008)
Like-named read-outs stand apart in the source and are kept apart here.

Legend:
O-2A/OPCs [1] = test: Intracellular ROS / redox state measurement; type: cell-based, rat; conditions: O-2A/OPCs in PDGF; MeHg, exposure levels as low as 20 nM
Protocol: Cells were plated in 96-well microplates and grown to about 60% continence. […] Cells were then washed once with HBSS and growth medium to remove free probe. Then, fresh growth medium was added and a baseline fluorescence reading was taken prior to treatment. For NAC pre-treatment. […] Fluorescence was measured in a Wallac 1420 Victor2 multilabel counter (PerkinElmer) using excitation and emission wavelengths of 485 nm and 535 nm, respectively, at different time courses as indicated in the figures. Results are presented as the value change from baseline by the formula (Ftexp−Ftbase)/Ftbase normalized with the control group, where Ftexp=fluorescence at any given time during the experiment in a give well and Ftbase=baseline fluorescence of the same well.

O-2A/OPCs [2] = test: Clonal analysis of division and differentiation; type: cell-based, rat
Protocol: O-2A/OPCs purified from P7 rat optic nerve were plated in. poly-L-lysine-coated 25-cm^2 flasks at clonal density with DMBM medium in the presence of 10-ng/ml PDGF as previously described. After 24-h recovery, cells were treated with different toxicants, each for 3 d, until visual inspection and immunostaining was performed. NAC was added 1 h before exposure to other toxicants for NAC pretreatment, and NAC co-exists throughout the culture period. The numbers of O-2A/OPCs and oligodendrocytes in each clone were determined by counting under fluorescent microscope. […] Experiments were performed in triplicate in at least two independent experiments.

TrkC [3] = type: cell-based, rat; conditions: MeHg, Pb or paraquat
In short: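 Western blot of cell lysates or sonicated tissue in RAPI buffer, SDS-PAGE to PVDF, primary antibodies (phospho-Erk, phospho-Akt, receptor, phospho-tyrosine), HRP secondary and luminol detection. Signaling analysed in presence of the cognate ligand: EGF for EGFR, NT-3 for TrkC, HGF for c-Met.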

[4] = Brain mercury levels in offspring after maternal drinking water exposure; type: in vivo, mice
Protocol: Six-week-old female SJL mice were treated with MeHg in their drinking water at a concentration of 100 or 250 ppb for 30-60 d prior to mating, and then throughout pregnancy and gestation. This is a level of treatment that is 75%-90% below levels generally considered to be low to moderate and is below levels that have been associated with gross defects in adult or developing animals (e.g., [69-73]).
In the present study, exposure of female mice to MeHg in their drinking water at a concentration of 250 ppb prior to conception, and maintenance of this exposure during suckling, was associated with brain mercury levels in the offspring (examined at P.14) of 50 ng/g, a fall that was precisely in agreement with predictions based on prior studies on the fall of mercury levels occurring during this period in suckling mice. […] The exposure levels of 100 and 250 ppb are 75%-90% below what has otherwise been considered to be low-dose exposure in mice.

PDGFRα = PDGFRα levels in brain tissue after developmental exposure; type: in vivo, SJL mice; conditions: 100 or 250 ppb MeHg in maternal drinking water; cerebellum, hippocampus, corpus callosum; 7 and 21 d after birth
Text: (§1) Anti-phosphorylated Erk monoclonal, anti-Erk monoclonal, anti-TrkC polyclonal anti-Fyn polyclonal, anti-EGFR polyclonal, anti-c-Met polyclonal, anti-phospho-tyrosine monoclonal, and anti-PDGFRα polyclonal antibodies were obtained from Santa Cruz Biotechnology (Santa Cruz, Calif., United States). Anti-c-Cbl monoclonal antibody was obtained from BD PharMingen (San Diego, Calif., United States). Anti-phosphorylated Akt monoclonal and anti-Akt polyclonal antibodies were obtained from Cell Signaling Technology (Beverly, Mass., United States). Anti-phosphorylated PDGPRα polyclonal antibody was obtained from Biosource (Carlsbad, Calif., United States). The cell culture samples were collected and lysed in RAPI buffer, whereas dissected tissue samples were sonicated in RAPI buffer. Samples were resolved on SDS-PAGE gels and transferred to PVDF membranes (PerkinElmer Life Science. Wellesley, Mass., United States), After being blocked in 5% skim milk in PBS containing 0.1% Tween 20, membranes were incubated with a primary antibody, followed by incubation with an HRP-conjugated secondary antibody (Santa Cruz Biotechnology). Membranes were visualized using Western Blotting Luminol Reagent (Santa Cruz Biotechnology). […]

EGFR = EGFR levels in brain tissue after developmental exposure; type: in vivo, SJL mice; conditions: 100 or 250 ppb MeHg in maternal drinking water; 7 and 21 d after birth
Text: as §1

TrkC [5] = test: TrkC levels in brain tissue after developmental exposure; type: in vivo, SJL mice; conditions: 100 or 250 ppb MeHg in maternal drinking water
Text: as §1

[6] = 14 mo of age, cited from earlier work
O-2A/OPCs [7] = test: Analysis of Pb uptake (Leadmium Green AM); type: cell-based, rat; conditions: 1 μM Pb, 1 mM NAC
Protocol: Pre-treatment with NAC was assayed to determine whether levels of intracellular Pb was altered using analysis with the Leadmium Green AM dye (Molecular Probes), according to the manufacturer's instructions. […] (unpaired t-test), and the values for both Pb-treated samples were several-fold higher than control values.

| Structure (SMILES) | cells more oxidized (intracellular redox state) (O-2A/OPCs [1]) | clone composition (cell division at the clonal level) (O-2A/OPCs [2]; MeHg exposure, PDGF) | levels of TrkC after toxicant exposure (TrkC [3]) | brain mercury in offspring ([4]; 100 ppb MeHg in maternal drinking water) | brain mercury levels in the offspring ([4]; 250 ppb MeHg in maternal drinking water, examined at P14) | levels of PDGFRα in brain (PDGFRα) | levels of EGFR in brain (EGFR) | levels of TrkC in brain (TrkC [5]) | brain levels of MeHg ([6]; 1 ppm in drinking water from conception) | brain levels of MeHg ([6]; 3 ppm in drinking water) | effect on MeHg-induced suppression of cell division at the clonal level (O-2A/OPCs [2]; co-exposure with MeHg, 1 mM NAC or PP1) | Pb levels in cells, Pb versus Pb and NAC (O-2A/OPCs [7]) |
| --- | --- | --- | --- | --- | --- | --- | --- | --- | --- | --- | --- | --- |
| [CH3][Hg][Cl] [MeHg, methylmercury] | approximately 20% | reduction in the number of large clones and an increase in the number of small clones | no reduction in levels of TrkC | below the levels of detection | 50 ng/g | clear and significant reductions | clear and significant reductions | not reduced | 1.20 mg/kg | 3.66 mg/kg |  |  |
| CC(=O)N[C@@H](CS)C(=O)O [NAC, N-acetyl-L-cysteine] |  |  |  |  |  |  |  |  |  |  | blocked | no significant difference |
